The values below come from patent US12391697B2, “Condensed bi-heterocycles as inhibiting agents for Bruton's tyrosine kinase” (BIOGEN MA INC., priority 2019, dated 2025).

Structures can show the parent of a compound that is named as a salt. Some results are limits rather than exact numbers.

The subject of one experiment is CD69 expression on CD19+ B cells in whole blood. The experiment in a line: In Vitro Whole Blood CD69 Assay. The note with it: Homo sapiens, B-cell, human heparinized whole blood, anti-human IgD stimulation, percentage of CD19+ B cells expressing CD69; read-out: IC50. Format: cell-based, Human. How it is done: In Vitro Whole Blood CD69 Assay
Human heparinized venous blood from health donors was aliquoted into 96-well plate and “spiked” with serial dilutions of formula I compounds in DMSO or with DMSO without drug. The final concentration of DMSO in all wells was 0.1%. The plate was incubated at 37° C. for 30 min. Drug-containing samples were stimulated with 0.1 μg/mL mouse anti-human IgD-dextran (1A62) or 20 μg/mL polyclonal rabbit F(ab′)2 anti-human IgD. Phosphate-buffered saline (PBS) was added to the negative control unstimulated sample and the plates were incubated overnight (18 to 22 hours) at 37° C. Cells were stained with fluorochrome-conjugated anti-CD19 and anti-CD69 antibodies. Lyse/fix solution was used to remove red blood cells by hypotonic lysis and to fix the remaining cells, which were then analyzed by flow cytometry. CD19+ B cells were gated and analyzed for CD69 expression. The percentage of B cells expressing CD69 was plotted versus the log 10 of the concentration of the drug and the best-fit curves (variable Hill slope) were generated to obtain the IC50 value.
What is called IC50 is the midpoint of a concentration-inhibition curve. With `Cc1cc(-c2ncnn3cc(-c4ccncc4)cc23)ccc1CNC(=O)c1noc(C(C)(C)C)n1` [Example 38, 5-(tert-butyl)-N-(2-methyl-4-(6-(pyridin-4-yl)pyrrolo[2,1-f][1,2,4]triazin-4-yl)benzyl)-1,2,4-oxadiazole-3-carboxamide], the IC50 lay in the range of 100 to 1000 nM.
The same measure, in the same setting: as for `Cc1cc(-c2ncnn3cc(N4CCN(C)[C@@H](C)C4)cc23)ccc1CNC(=O)c1nc(C(C)(C)C)no1` (single isomer, unassigned) [Example 28], the figure is 100 to 1000 nM.

The target of a further experiment is BTK (Homo sapiens (Human), UniProt Q06187). The experiment in a line: In Vitro BTK Kinase Assay: Btk-PolyGAT-LS Assay. The format is biochemical. Particulars: active BTK enzyme 0.25 nM, ATP 10 μM, polyGAT 100 nM, 30 minutes. The procedure, abridged: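 Recombinant BTK (0.25 nM) phosphorylating 100 nM polyGAT at 10 μM ATP in Tris-HCl pH 7.5 buffer with MgCl2, DTT, Triton X-100 and casein, 30 min, then EDTA stop.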
Chain of BTK (Q06187 whole entry): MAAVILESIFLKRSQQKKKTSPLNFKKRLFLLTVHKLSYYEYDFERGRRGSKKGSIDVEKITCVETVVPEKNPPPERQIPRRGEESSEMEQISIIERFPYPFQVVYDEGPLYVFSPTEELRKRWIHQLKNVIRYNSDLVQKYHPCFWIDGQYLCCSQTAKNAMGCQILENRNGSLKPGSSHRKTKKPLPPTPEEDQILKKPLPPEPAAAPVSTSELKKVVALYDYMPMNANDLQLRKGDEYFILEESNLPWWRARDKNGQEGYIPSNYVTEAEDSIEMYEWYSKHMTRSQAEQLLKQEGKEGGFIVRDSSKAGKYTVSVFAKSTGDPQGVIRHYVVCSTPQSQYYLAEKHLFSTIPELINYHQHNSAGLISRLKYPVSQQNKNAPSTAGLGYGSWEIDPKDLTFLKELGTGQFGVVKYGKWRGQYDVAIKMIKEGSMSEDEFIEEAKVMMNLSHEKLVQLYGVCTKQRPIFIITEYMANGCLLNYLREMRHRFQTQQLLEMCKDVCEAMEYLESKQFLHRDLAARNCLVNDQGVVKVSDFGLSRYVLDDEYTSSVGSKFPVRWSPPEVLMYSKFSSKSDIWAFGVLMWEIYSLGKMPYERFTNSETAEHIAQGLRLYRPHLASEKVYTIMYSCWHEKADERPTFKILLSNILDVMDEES
`Cc1cc(-c2ncnn3cc(-c4ccncc4)cc23)ccc1CNC(=O)c1noc(C(C)(C)C)n1` [Example 38, 5-(tert-butyl)-N-(2-methyl-4-(6-(pyridin-4-yl)pyrrolo[2,1-f][1,2,4]triazin-4-yl)benzyl)-1,2,4-oxadiazole-3-carboxamide] came in with an IC50 of at most 1 nM.
In turn, `Cc1cc(-c2ncnn3cc(N4CCN(C)[C@@H](C)C4)cc23)ccc1CNC(=O)c1nc(C(C)(C)C)no1` (single isomer, unassigned) [Example 28] had an IC50 of at most 1 nM.
Turning to `Cn1cc(-c2cc3c(-c4ccc(CNC(=O)c5nnc(C(C)(C)C)o5)c(C(F)F)c4F)ncnn3c2)cn1` [Example 196], the IC50 was at most 1 nM.
In turn, `Cc1cc(-c2ccnn3cccc23)ccc1CNC(=O)c1nc(C(C)(C)C)no1` [Example 18, 3-(tert-butyl)-N-(2-methyl-4-(pyrrolo[1,2-b]pyridazin-4-yl)benzyl)-1,2,4-oxadiazole-5-carboxamide] registered an IC50 of 1 to 10 nM.
Turning to `Cc1cc(-c2ncnn3cccc23)ccc1CNC(=O)c1noc(C(C)(C)C)n1` [Example 151], the half-inhibitory concentration (IC50) was in the range of 1 to 10 nM.
In turn, `CC(C)(C)c1nc(C(=O)NCc2ccc(-c3ncnn4cc(-c5cnn(CC(F)F)c5)cc34)cc2C(F)F)co1` [Example 210] displayed an IC50 of at most 1 nM.
Consider `CC(C)(C)c1nc(C(=O)NCc2ccc(-c3ncnn4cc(N5CCOCC5)cc34)cc2C(F)F)no1` [Example 220], for which the IC50 is at most 1 nM.
As for `Cc1cc(-c2ncnn3cccc23)ccc1CNC(=O)c1nc(C(C)(C)C)no1` [Example 152], the IC50 fell in the range of 1 to 10 nM.
On the same count and under the same terms, with `Cc1cc(-c2ncnn3cc(C4=CCOCC4)cc23)ccc1CNC(=O)c1nc(C(C)(C)C)no1` [Example 103] the figure was at most 1 nM; with `C#Cc1cc2c(-c3ccc(CNC(=O)c4noc(C(C)(C)C)n4)c(C)c3)ncnn2c1` [Example 76, 5-(tert-butyl)-N-(4-(6-ethynylpyrrolo[2,1-f][1,2,4]triazin-4-yl)-2-methylbenzyl)-1,2,4-oxadiazole-3-carboxamide trifluoroacetate], 1 to 10 nM; with `CC(C)(C)c1nc(C(=O)NCc2ccc(-c3ncnn4cccc34)c(F)c2C2CC2)no1` [Example 62, 5-(tert-butyl)-N-(2-cyclopropyl-3-fluoro-4-(pyrrolo[2,1-f][1,2,4]triazin-4-yl)benzyl)-1,2,4-oxadiazole-3-carboxamide trifluoroacetate], 1 to 10 nM.
Same read-out and setting: as for `Cc1cc(-c2ncnn3cc(N4C[C@@H](F)[C@@H](F)C4)cc23)ccc1CNC(=O)c1noc(C(C)(C)C)n1` [Example 122], the figure is at most 1 nM; as for `COc1cc(-c2ncnn3cc(-c4cnn(C)c4)cc23)ccc1CNC(=O)c1nnc(C(C)(C)C)o1` [Example 197], 1 to 10 nM; as for `Cc1c(CNC(=O)c2nc(C(C)(C)C)no2)ccc(-c2ccnc3cc(N4CCOCC4)nn23)c1F` [Example 118], 1 to 10 nM.
Consider `Cc1cc(-c2ncnn3cc(C4COC4)cc23)ccc1CNC(=O)c1noc(C(C)(C)C)n1` [Example 71, 5-(tert-butyl)-N-(2-methyl-4-(6-(oxetan-3-yl)pyrrolo[2,1-f][1,2,4]triazin-4-yl)benzyl)-1,2,4-oxadiazole-3-carboxamide trifluoroacetate], for which the half-inhibitory concentration (IC50) was above 10 nM.
For the molecule `Cn1cc(-c2cc3c(-c4ccc(CNC(=O)c5cn(C(C)(C)C)nn5)c(C(F)F)c4)ncnn3c2)cn1` [Example 64, 1-(tert-butyl)-N-(2-(difluoromethyl)-4-(6-(1-methyl-1H-pyrazol-4-yl)pyrrolo[2,1-f][1,2,4]triazin-4-yl)benzyl)-1H-1,2,3-triazole-4-carboxamide hydrochloride], the concentration for half-maximal inhibition (IC50) is at most 1 nM.
On to `Cc1cc(-c2ccnn3cnnc23)ccc1CNC(=O)c1noc(C(C)(C)C)n1` [Example 47], for which the IC50 was above 10 nM.
For the molecule `CC(C)(C)n1ccc(C(=O)NCc2ccc(-c3ncnn4cc(N5CCOCC5)cc34)c(F)c2Cl)n1` [Example 158], the half-maximal inhibitory concentration (IC50) is 1 to 10 nM.
As for `COc1c(CNC(=O)c2noc(C(C)(C)C)n2)ccc(-c2ncnn3cccc23)c1F` [Example 180], the half-maximal inhibitory concentration (IC50) was in the range of 1 to 10 nM.
`CCn1cc(-c2cc3c(-c4ccc(CNC(=O)c5noc(C(C)(C)C)n5)c(C)c4)ncnn3c2)cn1` [Example 236]: the half-inhibitory concentration (IC50) was at most 1 nM.
Regarding `Cc1cc(-c2ncnn3cc(C4=CCSCC4)cc23)ccc1CNC(=O)c1noc(C(C)(C)C)n1` [Example 101], the IC50 is at most 1 nM.
For the molecule `CC(C)(C)c1nc(C(=O)NCc2cc(F)c(-c3ncnn4cccc34)cc2Cl)no1` [Example 132], the IC50 is 1 to 10 nM.
Molecule `Cc1cc(-c2ncnn3cccc23)ccc1CNC(=O)c1cn(C(C)(C)C)nn1` [Example 184] came in with a half-inhibitory concentration (IC50) above 10 nM.
`COc1c(CNC(=O)c2nc(C(C)(C)C)no2)ccc(-c2ncnn3cc(N4CCOCC4)cc23)c1F` [Example 203] gave a 50% inhibitory concentration (IC50) of at most 1 nM.
With `COc1cc(-c2ncnn3cc(-c4cnn(C)c4)cc23)ccc1CNC(=O)c1nc(C(C)(C)C)no1` [Example 189], the concentration for half-maximal inhibition (IC50) was at most 1 nM.
In turn, `Cn1cc(-c2cc3c(-c4ccc(CNC(=O)c5nc(C(C)(C)C)no5)c(CC(F)F)c4F)ncnn3c2)cn1` [Example 66, 3-(tert-butyl)-N-(2-(2,2-difluoroethyl)-3-fluoro-4-(6-(1-methyl-1H-pyrazol-4-yl)pyrrolo[2,1-f][1,2,4]triazin-4-yl)benzyl)-1,2,4-oxadiazole-5-carboxamide hydrochloride] came in with a half-maximal inhibitory concentration (IC50) of at most 1 nM.
Molecule `Cc1c(CNC(=O)c2noc(C(C)(C)C)n2)ccc(-c2ncnn3cc(-c4cnn(C)c4)cc23)c1F` [Example 112] yielded an IC50 of at most 1 nM.
In turn, `Cc1cc(-c2ncnn3cc(C4=CCOCC4)cc23)ccc1CNC(=O)c1ccn(C(C)(C)C)n1` (single isomer, unassigned) [Example 127] yielded a 50% inhibitory concentration (IC50) of at most 1 nM.
Molecule `Cc1cc(-c2ncnn3cc(N4CCN(C)C(C)C4)cc23)ccc1CNC(=O)c1noc(C(C)(C)C)n1` (stereo not drawn) [Example 96] showed a half-inhibitory concentration (IC50) of at most 1 nM.
Same read-out and setting: with `Cc1cc(-c2ncnn3cc(N4CCO[C@@H](C)C4)cc23)ccc1CNC(=O)c1nnn(C(C)(C)C)n1` (single isomer, unassigned) [Example 140] the figure was 1 to 10 nM.
On the same count and under the same terms, as for `Cc1cc(-c2ncnn3cc(N4CCOCC4)cc23)ccc1CNC(=O)c1coc(C(C)(C)C)n1` [Example 176], the figure is 1 to 10 nM; as for `Cc1cc(-c2ncnn3cc(N4CCN(C)C[C@H]4C)cc23)ccc1CNC(=O)c1noc(C(C)(C)C)n1` [Example 70, (R)-5-(tert-butyl)-N-(4-(6-(2,4-dimethylpiperazin-1-yl)pyrrolo[2,1-f][1,2,4]triazin-4-yl)-2-methylbenzyl)-1,2,4-oxadiazole-3-carboxamide trifluoroacetate], 1 to 10 nM.
With `Cc1cc(-c2ncnn3cc(-c4cnsc4)cc23)ccc1CNC(=O)c1nc(C(C)(C)C)no1` [Example 173], the IC50 was at most 1 nM.
On to `CC(C)(C)c1noc(C(=O)NCc2ccc(-c3ncnn4cc(N5CCOCC5)cc34)cc2C(F)(F)F)n1` [Example 186], for which the half-inhibitory concentration (IC50) is at most 1 nM.
For the molecule `Cc1cc(-c2ncnn3cc(N4CCN(C)[C@H](C)C4)cc23)ccc1CNC(=O)c1nc(C(C)(C)C)no1` (single isomer, unassigned) [Example 27], the half-maximal inhibitory concentration (IC50) is at most 1 nM.
In turn, `Cc1cc(-c2ncnn3cc(N4CC5CC(C4)N5C)cc23)ccc1CNC(=O)c1noc(C(C)(C)C)n1` [Example 148] showed an IC50 of 1 to 10 nM.
`COCc1cc2c(-c3ccc(CNC(=O)c4noc(C(C)(C)C)n4)c(C)c3)ncnn2c1` [Example 77, 5-(tert-butyl)-N-(4-(6-(methoxymethyl)pyrrolo[2,1-f][1,2,4]triazin-4-yl)-2-methylbenzyl)-1,2,4-oxadiazole-3-carboxamide hydrochloride]: the IC50 was 1 to 10 nM.
`CC(C)(C)c1nnc(C(=O)NCc2ccc(-c3ncnn4cc(N5CCOCC5)cc34)c(F)c2C(F)F)o1` [Example 199] gave an IC50 of 1 to 10 nM.
`Cc1cc(-c2ncnn3cnc(C)c23)ccc1CNC(=O)c1noc(C(C)(C)C)n1` [Example 48]: the 50% inhibitory concentration (IC50) lay within 1 to 10 nM.
As to `CC(C)(C)c1nc(C(=O)NCc2ccc(-c3ncnn4cc(N5CCOCC5)cc34)c(F)c2CC(F)F)no1` [Example 234], the IC50 lay within 1 to 10 nM.
In turn, `Cn1cc(-c2cc3c(-c4ccc(CNC(=O)c5noc(C(C)(C)C)n5)c(CC(F)F)c4)ncnn3c2)cn1` [Example 231] yielded an IC50 of at most 1 nM.
On the same count and under the same terms, with `COCCN(C)c1cc2c(-c3ccc(CNC(=O)c4noc(C(C)(C)C)n4)c(C)c3)ncnn2c1` [Example 174] the figure was at most 1 nM; with `Cc1cc(-c2ncnn3cc(-c4cnn(C)c4C)cc23)ccc1CNC(=O)c1nnn(C(C)(C)C)n1` [Example 129], at most 1 nM.
As to `Cc1cc(-c2ncnn3cc(N4CCOCC4)cc23)ccc1CNC(=O)c1ccn(C(C)(C)C)n1` [Example 175], the IC50 was in the range of 1 to 10 nM.
`Cc1cc(-c2ncnn3cc(C4CCOC4)cc23)ccc1CNC(=O)c1noc(C(C)(C)C)n1` (stereo not drawn) [Example 95] returned a half-maximal inhibitory concentration (IC50) of 1 to 10 nM.
The molecule `Cc1cc(-c2ncnn3cc(N4CCO[C@@H](C)C4)cc23)ccc1CNC(=O)c1nc(C(C)(C)C)no1` (single isomer, unassigned) [Example 138] returned an IC50 of at most 1 nM.
